Laboratory results as given in PMC10313066, “In-vitro high-throughput library screening—Kinetics and molecular docking studies of potent inhibitors of α-glucosidase” (PLOS ONE, 2023).
pIC50: −log10 of the molar value.

Experiments:
α-glucosidase [1] = target: T1, α-glucosidase (Saccharomyces cerevisiae, UniProt P53341); assay: α-glucosidase inhibition assay (96-well, pNPG substrate, 405 nm); type: biochemical; details: S3 Table; for OD of sample: absorbance at 405 nm; for inhibition at 500 µM (stock): test compound 20 μL of 0.5 mM, read-out: Percentage Inhibition
T1 sequence (P53341 whole entry): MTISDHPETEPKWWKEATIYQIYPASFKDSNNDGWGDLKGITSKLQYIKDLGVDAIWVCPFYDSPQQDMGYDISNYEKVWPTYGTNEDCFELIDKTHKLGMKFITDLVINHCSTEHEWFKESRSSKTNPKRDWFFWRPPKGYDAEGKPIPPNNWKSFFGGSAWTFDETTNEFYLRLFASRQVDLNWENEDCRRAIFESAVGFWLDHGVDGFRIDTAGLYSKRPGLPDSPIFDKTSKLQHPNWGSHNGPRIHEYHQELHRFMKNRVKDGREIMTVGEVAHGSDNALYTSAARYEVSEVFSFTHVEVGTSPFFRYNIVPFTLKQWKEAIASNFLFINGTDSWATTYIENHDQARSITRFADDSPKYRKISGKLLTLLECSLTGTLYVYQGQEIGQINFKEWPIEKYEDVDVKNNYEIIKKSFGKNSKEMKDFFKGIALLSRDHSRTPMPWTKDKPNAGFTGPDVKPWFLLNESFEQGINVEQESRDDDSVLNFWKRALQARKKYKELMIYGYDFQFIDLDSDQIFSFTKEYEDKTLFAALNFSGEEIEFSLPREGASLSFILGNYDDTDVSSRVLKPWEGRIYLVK
Experimental: The assay is based on the method given by Pistia-Brueggeman with slight modifications. In a 96-well plate 120 μL of sodium phosphate buffer (pH = 7) was taken and 20 μL of the enzyme (2U/mL) was added. Then 20 μL of test compound (0.5 mM) was added and then incubated for 15 min. at 37 °C. In sequence, substrate pNPG (20 μL, 1mM) was taken in each well, and dissolved in buffer. The reaction mixture was again incubated for 15 min. at 37 °C. The reaction was stopped by the addition of 20 μL of 0.1 mM Na2CO3, so that the final volume reaches 200 μL. The activity of the enzyme was measured spectrophotometrically at 405 nm by measuring the concentration of product formed, using SpectraMax M2 (Molecular Devices CA, USA). Each sample was taken in triplicate and the % inhibition was measured. […]

urease = tested on: urease; parameters: method as in earlier work; details: cited from earlier work
carbonic anhydrase II = target: carbonic anhydrase II; parameters: method as in earlier work; details: cited from earlier work
α-glucosidase [2] = target: T1, α-glucosidase; assay: Kinetic studies, Line-weaver Burk plot (type of enzyme inhibition); type: biochemical; details: Vmax and Km both change with inhibitor concentration
Experimental: The type of enzyme inhibition was determined by using the Line-weaver Burk plot. For this, out of 4 different concentrations of each sample, each concentration is analyzed against 4 different concentrations of substrate ranging from 1 mM to 0.125 mM. The inverse of maximum velocity (1/Vmax), obtained for each concentration, is plotted against the inverse of substrate concentrations (1/[S]) to find out type of enzyme inhibition.

| OD of sample (α-glucosidase [1]) | inhibition at 500 µM (stock) (α-glucosidase [1]) [%] | mode (type) of enzyme inhibition (α-glucosidase [2]) | Compound | pIC50 (urease) | pIC50 (carbonic anhydrase II) |
| --- | --- | --- | --- | --- | --- |
| 0.64 | 80.1 |  | CCCCCCCCCCCCSc1nc2ccccc2n1CC(=O)N/N=C/c1ccc(O)c(OCC)c1 [compound 96] |  |  |
| 0.49 | 81.9 |  | COc1ccc(S(=O)(=O)N2CCC(c3nnc(SC(C)C(=O)Nc4ccc(C)cc4)n3-c3ccccc3)CC2)cc1 (stereo not drawn) [compound 185] |  |  |
| 0.30 | 91.2 | un-competitive | CCSc1nc2ccccc2n1CC(=O)N/N=C/c1ccc(O)cc1O [compound 228, (E)-N’-(2,4-dihydroxybenzylidene)-2-(2-(ethylthio)-1H-benzo[d]imidazol-1-yl)acetohydrazide] |  |  |

More lines, now with the values behind:

| Compound | OD of sample (α-glucosidase [1]) | inhibition at 500 µM (stock) (α-glucosidase [1]) [%] | mode (type) of enzyme inhibition (α-glucosidase [2]) | pIC50 (urease) | pIC50 (carbonic anhydrase II) |
| --- | --- | --- | --- | --- | --- |
| O=[N+]([O-])c1ccc(N/N=C\c2ccc(O)cc2)c([N+](=O)[O-])c1 [compound 5] | 0.62 |  |  |  |  |
| N=C(N)NCCC[C@@H](N)c1nnc(-c2cccs2)o1 [(R)-1-(4-amino-4-(5-(thiophen-2-yl)-1,3,4-oxadiazol-2-yl)butyl)guanidine] |  |  |  | 4.33 |  |
| O=C(C1=C(c2ccccc2)NC(=S)NC1c1cccc(O)c1)c1ccccc1 (stereo not drawn) [(4-(3-hydroxyphenyl)-6-phenyl-2-thioxo-1,2,3,4-tetrahydropyrimidin-5-yl)phenyl)methanone] |  |  |  |  | 4.01 |
| O=C1Oc2ccccc2C(=O)/C1=C/c1ccc(-c2ccccc2)cc1 [compound 54] | 0.39 | 85.6 |  |  |  |
| Clc1ccc(-c2nnc(-c3ccc[nH]3)o2)c(Cl)c1 [compound 25, 2-(2,4-dichlorophenyl)-5-(1H-pyrrol-2-yl)-1,3,4-oxadiazole] | 0.33 | 90 | un-competitive |  |  |
